Laboratory results: patent US8697662B2, “Methods for treating Kaposi sarcoma” (PTC Therapeutics, Inc., priority 2009, dated 2014)
One block for each compound: values may come before it.

Assays:
HT1080 xenografts [1] = assay: BrdU labeling of tumor cells from HT1080 xenografts in vivo; set-up: species or system athymic nude mice; conditions: HT1080 xenografts, 1, 2, or 3 days of treatment
Protocol: (§1) Experimental Design. HT1080 cells (5×10^6 cells/mouse) were implanted subcutaneously in male athymic nude mice.
The mice were sacrificed 3 hours later, and the tumors collected. A single cell suspension was prepared from the tumor cells. The cells were permeabilized and an antibody to BrdU was used to stain cells that had entered S phase during the labeling period. The proportion of cells actively synthesizing DNA was determined by cell sorting.

HT1080 xenografts [2] = assay: Time course of tumor size and plasma human VEGF in HT1080 xenografts; assay type: in vivo, athymic nude mice; conditions: by Day 1
Protocol: as §1
Tumor size was measured by calipers immediately pre-treatment and at the time of sacrifice on Day 1, 2, or 3 (5 mice per group per day). At sacrifice, the plasma was collected for assay of pathologic human VEGF concentration using an ELISA that recognizes human VEGF121 and VEGF165 (as described in Section 9.1.1.1).

[3] = tested on: KS-like angioproliferative lesions; conditions: nude mice, doses similar to AIDS patients; cited from earlier work
HT1080 cells = assay: Cell cycle analysis by propidium iodide flow cytometry in HT1080 cells (S-phase accumulation, Table 24); assay type: cell-based, human; conditions: same tumor cells; data not shown
Protocol: Experimental Design. […] After treatment, cells were trypsinized, and stained with propidium iodide (PI) dye to measure DNA content of individual cells by flow cytometry. Output comprised histograms showing relative DNA content in 10,000 cells.
While compounds which cause greater than 20% of the cells to accumulate in S-phase at 100 nM are considered active, a larger percentage of cells may be accumulated in S-phase at lower doses depending on the Compound, as shown in FIG. 12 for example.

[4] = tested on: hypoxia-inducible endogenous VEGF expression; assay: Hypoxia-inducible endogenous VEGF expression ELISA in HeLa cells, dose-response EC50 (Table 3); assay type: cell-based; conditions: Homo sapiens, hypoxic conditions (1% O2), VEGF ELISA of conditioned media
Protocol: The ability of the Compounds to modulate hypoxia-inducible endogenous VEGF expression may be analyzed as follows. VEGF protein levels may be monitored by an ELISA assay (R&D Systems). Briefly, HeLa cells may be cultured for 24-48 hours under hypoxic conditions (1% O2, 5% CO2, balanced with nitrogen) in the presence or absence of a Compound. The conditioned media may then be assayed by ELISA, and the concentration of VEGF calculated from the standard ELISA curve of each assay.
A dose-response analysis may be performed using the ELISA assay and conditions described above. The conditions for the dose-response ELISA are analogous to those described above. A series of, e.g., seven different concentrations may be analyzed. In parallel, a dose-response cytotoxicity assay may be performed using Cell Titer Glo (Promega) under the same conditions as the ELISA to ensure that the inhibition of VEGF expression was not due to the cytotoxicity.

[5] = tested on: primary endothelial cells; conditions: in-vitro; cited from earlier work

Compound: COc1cccc2c1C(=O)c1c(O)c3c(c(O)c1C2=O)C[C@@](O)(C(=O)CO)C[C@@H]3O[C@H]1C[C@H](N)[C@H](O)[C@H](C)O1 [doxorubicin, reference compound]
BrdU staining of tumor cells (fraction in S phase) (in words) (HT1080 xenografts [1]): decreased the percentage of tumor cells staining with BrdU
pathologic plasma human VEGF levels (in words) (HT1080 xenografts [2]): numerically lower than in control animals

Compound: CC(C)(C)NC(=O)[C@@H]1CN(Cc2cccnc2)CCN1C[C@@H](O)C[C@@H](Cc1ccccc1)C(=O)N[C@H]1c2ccccc2C[C@H]1O [indinavir]
macroscopic KS-like angioproliferative lesions (in words) [3]: reduction in the number and size

Compound: CC(C)(C)NC(=O)[C@@H]1C[C@@H]2CCCC[C@@H]2CN1C[C@@H](O)[C@H](Cc1ccccc1)NC(=O)[C@H](CC(N)=O)NC(=O)c1ccc2ccccc2n1 [saquinavir]
macroscopic KS-like angioproliferative lesions (in words) [3]: reduction in the number and size

Compound: NC(Cn1ccc(=O)c(O)c1)C(=O)O (stereo not drawn) [mimosine, reference compound]
effect on cell cycle (and VEGF production) (in words) (HT1080 cells): does not delay or prolong the cell cycle or reduce VEGF production

EC50 [4]: < 8 nM
Compound: NC(=O)COc1ccc(C2c3[nH]c4ccc(Cl)cc4c3CCN2C(=O)Oc2ccc(Cl)cc2)cc1 (stereo not drawn) [Compound 1161]

EC50 ([4]; 24-48 hours): 8 to 40 nM
Compound: CC(CO)(CO)COc1ccc([C@H]2c3[nH]c4ccc(Cl)cc4c3CCN2C(=O)Oc2ccc(F)cc2)cc1 [Compound 1335]

Compound: CC(C)c1nc(CN(C)C(=O)N[C@H](C(=O)N[C@@H](Cc2ccccc2)C[C@H](O)[C@H](Cc2ccccc2)NC(=O)OCc2cncs2)C(C)C)cs1 [ritonavir]
activation and proliferation of primary endothelial cells (in words) [5]: inhibition of activation and proliferation
production of TNF-α, IL-6, IL-8 and VEGF (in words) [5]: decreased production
